Test results: patent US8044069B2, “Compounds as calcium channel blockers” (Abbott Laboratories, priority 2008, dated 2011)

Molecular target: human Cav2.2 (Homo sapiens, UniProt Q00975)
Experiment: Assessment of calcium channel activity using FLIPR (Ca2+ influx in IMR32 cells)
Assay type: cell-based
Settings: IMR32 cells endogenously expressing human Cav2.2; 60 minute pre-incubation; 2 μM nifedipine; depolarized with 80 mM KCl, 5 mM CaCl2
Method: (i) In Vitro Methods—Assessment of Calcium Channel Activity Using FLIPR:
The IMR32 cells were maintained in MEM media containing 10% (v/v) FBS, 1% (v/v) antibiotic/antimitotic, 1% (v/v) sodium pyruvate and 1% (v/v) MEM NEAA. Following dissociation in 0.05% (v/v) trypsin/EDTA, cells were seeded into black 1×96-well plates (Corning Cellbind) at a density of 1-1.2×10^5 cells/well and incubated in the maintenance media above for 48 hours at 37° C. […] After dye loading and a subsequent 60 minute pre-incubation with compounds (full log dilutions from 10 μM to 0.1 nM) in the presence of 1.3 mM CaCl2 and 2 μM nifedipine to block endogenous L-type channels, the external Ca^2+ concentration was increased to 5 mM CaCl2 and the cells concomitantly depolarized with 80 mM KCl to assay channel activity. To determine the IC50 values, the percent inhibition of the compound at each concentration was determined relative to the activity in the absence of inhibitor, and data was fitted using non-linear regression sigmoidal dose response curve analysis with GraphPad Prism®.

human Cav2.2, sequence (Q00975 whole entry): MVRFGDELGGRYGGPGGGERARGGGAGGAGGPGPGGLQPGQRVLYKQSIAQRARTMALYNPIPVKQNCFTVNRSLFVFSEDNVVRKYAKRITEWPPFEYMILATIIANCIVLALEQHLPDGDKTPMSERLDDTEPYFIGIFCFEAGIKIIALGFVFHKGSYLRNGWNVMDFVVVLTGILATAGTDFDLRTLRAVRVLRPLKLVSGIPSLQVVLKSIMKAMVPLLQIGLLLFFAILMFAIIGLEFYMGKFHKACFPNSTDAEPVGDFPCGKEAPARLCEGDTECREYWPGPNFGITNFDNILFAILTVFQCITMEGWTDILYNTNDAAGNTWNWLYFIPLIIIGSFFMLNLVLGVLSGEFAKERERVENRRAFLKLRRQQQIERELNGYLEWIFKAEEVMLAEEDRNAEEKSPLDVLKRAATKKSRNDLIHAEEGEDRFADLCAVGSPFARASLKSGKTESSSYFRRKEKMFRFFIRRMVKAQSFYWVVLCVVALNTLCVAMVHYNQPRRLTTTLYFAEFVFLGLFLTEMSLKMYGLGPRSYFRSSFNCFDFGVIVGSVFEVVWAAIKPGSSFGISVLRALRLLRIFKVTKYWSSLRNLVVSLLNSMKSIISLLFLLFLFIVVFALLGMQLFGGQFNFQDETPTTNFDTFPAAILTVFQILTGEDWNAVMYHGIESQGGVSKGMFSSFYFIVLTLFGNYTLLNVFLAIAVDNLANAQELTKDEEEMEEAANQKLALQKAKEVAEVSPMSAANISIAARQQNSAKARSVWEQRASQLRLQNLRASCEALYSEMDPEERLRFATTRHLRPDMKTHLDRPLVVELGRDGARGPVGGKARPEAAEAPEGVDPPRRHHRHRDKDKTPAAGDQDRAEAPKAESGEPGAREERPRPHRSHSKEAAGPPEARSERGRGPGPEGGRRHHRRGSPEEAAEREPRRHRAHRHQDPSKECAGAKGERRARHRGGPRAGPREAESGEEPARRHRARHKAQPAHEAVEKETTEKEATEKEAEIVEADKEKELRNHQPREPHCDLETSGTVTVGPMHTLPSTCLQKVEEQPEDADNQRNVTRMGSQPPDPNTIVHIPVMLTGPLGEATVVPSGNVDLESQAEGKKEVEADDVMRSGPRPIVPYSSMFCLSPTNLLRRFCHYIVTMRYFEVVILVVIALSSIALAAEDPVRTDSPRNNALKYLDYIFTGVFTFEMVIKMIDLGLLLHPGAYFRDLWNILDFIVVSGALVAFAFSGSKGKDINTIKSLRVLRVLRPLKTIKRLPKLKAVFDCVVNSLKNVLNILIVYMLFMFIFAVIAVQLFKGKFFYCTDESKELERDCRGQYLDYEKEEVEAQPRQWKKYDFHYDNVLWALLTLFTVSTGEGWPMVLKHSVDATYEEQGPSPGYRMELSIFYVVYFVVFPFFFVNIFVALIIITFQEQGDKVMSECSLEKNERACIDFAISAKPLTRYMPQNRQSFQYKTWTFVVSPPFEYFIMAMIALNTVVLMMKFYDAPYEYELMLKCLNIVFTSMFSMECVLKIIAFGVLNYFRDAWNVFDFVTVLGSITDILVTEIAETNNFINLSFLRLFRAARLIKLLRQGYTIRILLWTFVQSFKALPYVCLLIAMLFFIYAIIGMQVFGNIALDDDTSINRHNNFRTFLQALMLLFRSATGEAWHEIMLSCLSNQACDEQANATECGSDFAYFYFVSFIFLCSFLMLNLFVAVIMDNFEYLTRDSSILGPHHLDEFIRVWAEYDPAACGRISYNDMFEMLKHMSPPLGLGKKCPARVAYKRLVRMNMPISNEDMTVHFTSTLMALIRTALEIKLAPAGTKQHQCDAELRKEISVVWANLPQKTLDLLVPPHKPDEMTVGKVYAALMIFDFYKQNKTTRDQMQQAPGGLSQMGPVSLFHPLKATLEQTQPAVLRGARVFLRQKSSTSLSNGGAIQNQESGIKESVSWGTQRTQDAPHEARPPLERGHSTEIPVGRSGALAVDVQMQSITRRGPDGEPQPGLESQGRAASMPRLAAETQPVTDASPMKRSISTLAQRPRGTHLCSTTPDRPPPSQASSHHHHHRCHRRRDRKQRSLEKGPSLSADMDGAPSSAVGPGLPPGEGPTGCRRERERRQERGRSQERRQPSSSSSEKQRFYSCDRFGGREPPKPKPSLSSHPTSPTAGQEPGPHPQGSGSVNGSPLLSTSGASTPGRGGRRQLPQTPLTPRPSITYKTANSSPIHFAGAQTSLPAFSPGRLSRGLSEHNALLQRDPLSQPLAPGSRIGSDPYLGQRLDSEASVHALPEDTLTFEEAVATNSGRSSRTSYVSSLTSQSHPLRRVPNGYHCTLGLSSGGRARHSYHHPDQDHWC
human Cav2.2, sequence (P54289 25-951 partner limits assumed): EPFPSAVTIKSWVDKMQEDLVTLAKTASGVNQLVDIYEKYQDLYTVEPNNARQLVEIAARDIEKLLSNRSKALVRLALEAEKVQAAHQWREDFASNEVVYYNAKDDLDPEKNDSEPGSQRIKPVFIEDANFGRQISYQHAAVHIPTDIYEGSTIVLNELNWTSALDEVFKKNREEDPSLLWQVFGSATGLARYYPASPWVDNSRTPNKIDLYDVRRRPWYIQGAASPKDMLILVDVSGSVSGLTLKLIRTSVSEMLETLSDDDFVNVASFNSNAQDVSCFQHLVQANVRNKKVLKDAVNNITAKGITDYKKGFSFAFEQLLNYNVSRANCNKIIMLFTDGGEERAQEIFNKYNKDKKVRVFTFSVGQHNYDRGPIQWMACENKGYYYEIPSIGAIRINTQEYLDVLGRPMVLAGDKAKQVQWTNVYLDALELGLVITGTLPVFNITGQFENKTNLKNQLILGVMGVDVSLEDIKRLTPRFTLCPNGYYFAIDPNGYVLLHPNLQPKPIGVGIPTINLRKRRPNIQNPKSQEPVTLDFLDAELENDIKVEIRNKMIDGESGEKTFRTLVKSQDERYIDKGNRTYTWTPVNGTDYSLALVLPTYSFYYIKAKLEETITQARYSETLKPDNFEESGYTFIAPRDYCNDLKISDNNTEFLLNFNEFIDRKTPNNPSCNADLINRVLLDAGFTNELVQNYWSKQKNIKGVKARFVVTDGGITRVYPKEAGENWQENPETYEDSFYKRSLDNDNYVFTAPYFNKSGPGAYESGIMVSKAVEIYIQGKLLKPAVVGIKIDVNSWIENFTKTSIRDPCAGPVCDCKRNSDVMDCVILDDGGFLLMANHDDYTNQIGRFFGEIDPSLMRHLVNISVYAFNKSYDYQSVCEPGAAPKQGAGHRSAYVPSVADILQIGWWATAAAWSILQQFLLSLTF
human Cav2.2, sequence (P54289 952-1103 partner limits assumed): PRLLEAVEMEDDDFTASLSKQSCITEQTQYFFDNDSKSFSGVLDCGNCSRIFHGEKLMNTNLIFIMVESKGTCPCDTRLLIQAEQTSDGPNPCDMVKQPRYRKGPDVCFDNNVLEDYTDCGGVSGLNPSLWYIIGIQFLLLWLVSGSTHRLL
human Cav2.2, sequence (P54284 whole entry partner): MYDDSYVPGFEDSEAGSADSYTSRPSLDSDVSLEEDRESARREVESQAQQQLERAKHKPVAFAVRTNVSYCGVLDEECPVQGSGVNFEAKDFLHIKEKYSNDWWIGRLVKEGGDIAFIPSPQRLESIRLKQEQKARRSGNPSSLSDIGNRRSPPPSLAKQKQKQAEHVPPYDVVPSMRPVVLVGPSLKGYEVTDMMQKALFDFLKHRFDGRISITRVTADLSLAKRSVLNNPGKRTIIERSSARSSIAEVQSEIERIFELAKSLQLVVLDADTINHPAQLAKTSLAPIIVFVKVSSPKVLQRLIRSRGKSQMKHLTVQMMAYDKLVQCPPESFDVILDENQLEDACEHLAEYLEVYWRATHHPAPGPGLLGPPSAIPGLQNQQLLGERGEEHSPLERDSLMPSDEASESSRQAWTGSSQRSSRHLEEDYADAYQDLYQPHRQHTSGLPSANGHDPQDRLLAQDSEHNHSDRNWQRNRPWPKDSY

SMILES	IC50 [µM]
O=C(CN1CCC(c2ccc(F)cc2)C1=O)N1Cc2ccc(C(F)(F)F)cc2C1 (single isomer, unassigned; (-)) [Example 265, (−)-3-(4-fluorophenyl)-1-{2-oxo-2-[5-(trifluoromethyl)-1,3-dihydro-2H-isoindol-2-yl]ethyl}pyrrolidin-2-one]	11.1
O=C(CN1CCC(c2ccc(F)cc2)C1=O)N1Cc2ccc(C(F)(F)F)cc2C1 (stereo not shown) [Example 216, 3-(4-fluorophenyl)-1-{2-oxo-2-[5-(trifluoromethyl)-1,3-dihydro-2H-isoindol-2-yl]ethyl}pyrrolidin-2-one]	9.43
O=C(CN1CCCC(c2ccccc2)(c2ccccc2)C1=O)N1CCC(Oc2ccc(F)c(F)c2)CC1 [Example 160, 1-{2-[4-(3,4-difluorophenoxy)piperidin-1-yl]-2-oxoethyl}-3,3-diphenylpiperidin-2-one]	3.04
N#Cc1ccc(NC(=O)CN2CCC(c3ccccc3)(c3ccccc3)C2=O)nc1 [Example 251, N-(5-cyanopyridin-2-yl)-2-(2-oxo-3,3-diphenylpyrrolidin-1-yl)acetamide]	8.32
N#Cc1ccc(NC(=O)CN2CCC(c3ccc(F)cc3)(c3ccc(F)cc3)C2=O)nc1 [Example 252, 2-[3,3-bis(4-fluorophenyl)-2-oxopyrrolidin-1-yl]-N-(5-cyanopyridin-2-yl)acetamide]	2.97
O=C(CN1CCCC(c2ccccc2)(c2ccccc2)C1=O)NC1CCOc2ccc(F)cc21 (stereo not shown) [Example 75, N-(6-fluoro-3,4-dihydro-2H-chromen-4-yl)-2-(2-oxo-3,3-diphenylpiperidin-1-yl)acetamide]	4.61
O=C(CN1CCCC(c2ccccc2)C1=O)N1CCN(Cc2cccc(C(F)(F)F)c2)CC1 (stereo not shown) [Example 93, 1-(2-oxo-2-{4-[3-(trifluoromethyl)benzyl]piperazin-1-yl}ethyl)-3-phenylpiperidin-2-one]	5.9
O=C(CN1CCC(c2ccccc2)(c2ccccc2)C1=O)N1CCc2ccccc2C1 [Example 19, 1-[2-(3,4-dihydroisoquinolin-2(1H)-yl)-2-oxoethyl]-3,3-diphenylpyrrolidin-2-one]	3.31
O=C(CN1CCC(c2ccccc2)(c2ccccc2)C1=O)N1CCN(c2ccc(Cl)cn2)CC1 [Example 53, 1-{2-[4-(5-chloropyridin-2-yl)piperazin-1-yl]-2-oxoethyl}-3,3-diphenylpyrrolidin-2-one]	4.02
O=C(CN1CCC(c2ccccc2)(c2ccccc2)C1=O)Nc1ccc(C(F)(F)F)nc1 [Example 248, 2-(2-oxo-3,3-diphenylpyrrolidin-1-yl)-N-[6-(trifluoromethyl)pyridin-3-yl]acetamide]	8.84
O=C(CN1CCCC(c2ccccc2)(c2ccccc2)C1=O)N1CCC(Oc2ccc(Cl)cc2)CC1 [Example 158, 1-{2-[4-(4-chlorophenoxy)piperidin-1-yl]-2-oxoethyl}-3,3-diphenylpiperidin-2-one]	4.07
CC(C)(C)c1ccc(-c2noc(CN3CCC(c4ccccc4)(c4ccccc4)C3=O)n2)cc1 [Example 202, 1-{[3-(4-tert-butylphenyl)-1,2,4-oxadiazol-5-yl]methyl}-3,3-diphenylpyrrolidin-2-one]	10.4
COc1ccc(C2(c3ccc(OC)cc3)CCCN(CCN(C)C3Cc4ccccc4C3)C2=O)cc1 [Example 113, 1-{2-[2,3-dihydro-1H-inden-2-yl(methyl)amino]ethyl}-3,3-bis(4-methoxyphenyl)piperidin-2-one]	3.19
O=C(CN1CCCC(c2ccc(F)cc2)(c2ccc(F)cc2)C1=O)N1CCN(C(c2ccccc2)c2ccccc2)CC1 [Example 90, 1-[2-(4-benzhydrylpiperazin-1-yl)-2-oxoethyl]-3,3-bis(4-fluorophenyl)piperidin-2-one]	4.61
COc1ccc(C2(c3ccc(OC)cc3)CCCN(CCN(C)CCCOc3cc(OC)cc(OC)c3)C2=O)cc1 [Example 115, 1-{2-[[3-(3,5-dimethoxyphenoxy)propyl](methyl)amino]ethyl}-3,3-bis(4-methoxyphenyl)piperidin-2-one]	3.12
O=C(CN1CCC(c2ccc(F)cc2)C1=O)N1CCc2cc(Cl)ccc2C1 (stereo not shown) [Example 257, 1-[2-(6-chloro-3,4-dihydroisoquinolin-2(1H)-yl)-2-oxoethyl]-3-(4-fluorophenyl)pyrrolidin-2-one]	6.16
O=C(CN1CCCC(c2ccccc2)(c2ccccc2)C1=O)N1CCC(c2ccc(C(F)(F)F)cc2)CC1 [Example 245, 1-(2-oxo-2-{4-[4-(trifluoromethyl)phenyl]piperidin-1-yl}ethyl)-3,3-diphenylpiperidin-2-one]	4.48
O=C1N(Cc2nc(-c3ccc4[nH]ncc4c3)no2)CCCC1(c1ccccc1)c1ccccc1 [Example 154, 1-{[3-(1H-indazol-5-yl)-1,2,4-oxadiazol-5-yl]methyl}-3,3-diphenylpiperidin-2-one]	5.15
O=C(CN1CCC(c2ccccc2)(c2ccccc2)C1=O)NCc1nccs1 [Example 3, 2-(2-oxo-3,3-diphenylpyrrolidin-1-yl)-N-(1,3-thiazol-2-ylmethyl)acetamide]	13.4
CN1CCN(CC(=O)N2CCN(C(c3ccc(F)cc3)c3ccc(F)cc3)CC2)C(=O)C1c1ccccc1 (stereo not shown) [Example 104, 1-(2-{4-[bis(4-fluorophenyl)methyl]piperazin-1-yl}-2-oxoethyl)-4-methyl-3-phenylpiperazin-2-one]	4.7

Stronger by IC50, values ahead:

IC50 [µM]	SMILES
2.29	O=C(CN1CCC(c2ccccc2)(c2ccccc2)C1=O)N1CCC[C@@H]2CN(C(c3ccccc3)c3ccccc3)C[C@@H]21 [Example 51, 1-{2-[(4aR,7aR)-6-benzhydryloctahydro-1H-pyrrolo[3,4-b]pyridin-1-yl]-2-oxoethyl}-3,3-diphenylpyrrolidin-2-one]
1.91	O=C1N(Cc2nc(-c3cnccn3)no2)CCC1(c1ccc(F)cc1)c1ccc(F)cc1 [Example 232, 3,3-bis(4-fluorophenyl)-1-[(3-pyrazin-2-yl-1,2,4-oxadiazol-5-yl)methyl]pyrrolidin-2-one]
1.9	COc1ccc(C2(c3ccc(OC)cc3)CCCN(CCN(C)CCc3cccc(OC)c3)C2=O)cc1 [Example 124, 3,3-bis(4-methoxyphenyl)-1-{2-[[2-(3-methoxyphenyl)ethyl](methyl)amino]ethyl}piperidin-2-one]
1.76	COc1cc(CN2CCN(CCN3CCC(c4ccc(F)cc4)(c4ccc(F)cc4)C3=O)CC2)cc(OC)c1OC [Example 109, 3,3-bis(4-fluorophenyl)-1-{2-[4-(3,4,5-trimethoxybenzyl)piperazin-1-yl]ethyl}pyrrolidin-2-one]
1.74	O=C(CN1CCC(c2ccc(F)cc2)(c2ccc(F)cc2)C1=O)NC1CN(Cc2ccc(C(F)(F)F)c(F)c2)C1 [Example 239, 2-[3,3-bis(4-fluorophenyl)-2-oxopyrrolidin-1-yl]-N-{1-[3-fluoro-4-(trifluoromethyl)benzyl]azetidin-3-yl}acetamide]
1.68	COc1ccc(C2(c3ccc(OC)cc3)CCCN(CCCN(C)CCc3cccc(OC)c3)C2=O)cc1 [Example 125, 3,3-bis(4-methoxyphenyl)-1-{3-[[2-(3-methoxyphenyl)ethyl](methyl)amino]propyl}piperidin-2-one]
1.67	COc1cccc(CCN(C)CCN2CCCC(c3ccc(F)cc3)(c3ccc(F)cc3)C2=O)c1 [Example 120, 3,3-bis(4-fluorophenyl)-1-{2-[[2-(3-methoxyphenyl)ethyl](methyl)amino]ethyl}piperidin-2-one]
1.53	O=C(CN1CCC(c2ccc(F)cc2)(c2ccc(F)cc2)C1=O)N1Cc2ccc(C(F)(F)F)cc2C1 [Example 228, 3,3-bis(4-fluorophenyl)-1-{2-oxo-2-[5-(trifluoromethyl)-1,3-dihydro-2H-isoindol-2-yl]ethyl}pyrrolidin-2-one]
1.15	O=C(CN1CCCC(c2ccccc2)(c2ccccc2)C1=O)N[C@H]1CCN(Cc2cccc(C(F)(F)F)c2)C1 [Example 185, 2-(2-oxo-3,3-diphenylpiperidin-1-yl)-N-{(3S)-1-[3-(trifluoromethyl)benzyl]pyrrolidin-3-yl}acetamide]
0.86	O=C(CN1CCC(c2ccc(F)cc2)(c2ccc(F)cc2)C1=O)N1CC2(CCN(Cc3ccc(C(F)(F)F)cc3)CC2)C1 [Example 153, 3,3-bis(4-fluorophenyl)-1-(2-oxo-2-{7-[4-(trifluoromethyl)benzyl]-2,7-diazaspiro[3.5]non-2-yl}ethyl)pyrrolidin-2-one]
0.81	O=C(CN1CCC(c2ccccc2)(c2ccccc2)C1=O)N1CCCC(c2ccccc2)(c2ccccc2)C1 [Example 24, 1-[2-(3,3-diphenylpiperidin-1-yl)-2-oxoethyl]-3,3-diphenylpyrrolidin-2-one]
0.73	COc1ccc(C2(c3ccc(OC)cc3)CCN(CCN(C)CC(O)COc3cccc4ncccc34)C2=O)cc1 (stereo not shown) [Example 106, 1-{2-[[2-hydroxy-3-(quinolin-5-yloxy)propyl](methyl)amino]ethyl}-3,3-bis(4-methoxyphenyl)pyrrolidin-2-one]
0.72	O=C(CN1CCCC(c2ccccc2)(c2ccccc2)C1=O)NC1CN(Cc2ccc(F)c(C(F)(F)F)c2)C1 [Example 198, N-{1-[4-fluoro-3-(trifluoromethyl)benzyl]azetidin-3-yl}-2-(2-oxo-3,3-diphenylpiperidin-1-yl)acetamide]
0.4	O=C(CN1CCC(c2ccccc2)(c2ccccc2)C1=O)NC1CCN(C(c2ccccc2)c2ccccc2)CC1 [Example 48, N-(1-benzhydrylpiperidin-4-yl)-2-(2-oxo-3,3-diphenylpyrrolidin-1-yl)acetamide]
